{"source": "patent US20190290574A1", "about": "“TOPICAL SKIN CARE COMPOSITIONS COMPRISING MYRSINE AFRICANA EXTRACTS” (University of Pretoria, priority 2015, published 2019)", "key": {"human skin": {"system": "human skin", "assay": "Irritancy patch test", "protocol": "A sample of the ethanol extract was applied on the inner forearm of twenty (20) volunteers aged between 19-65 years using patch discs for 24 hours to determine irritancy. Visual assessments of the areas were made after 24, 48, 72 and 96 hours. Any reaction was graded as a score of 0, 0.5, 1, 2, 3, and 4, where 0 represented a no response and 4 a fiery redness, papules, oedema or bullae. The forearm of each volunteer included a positive control of sodium lauryl sulphate solution (1 g/100 mL) and a negative control of demineralised water."}, "[1]": {"target": "T1, porcine pancreatic elastase (Sus scrofa, UniProt P00772)", "T1 construct": "purchased Sigma E0258; host or cells: porcine pancreas (tissue-derived product)", "T1 sequence (P00772 27-266)": "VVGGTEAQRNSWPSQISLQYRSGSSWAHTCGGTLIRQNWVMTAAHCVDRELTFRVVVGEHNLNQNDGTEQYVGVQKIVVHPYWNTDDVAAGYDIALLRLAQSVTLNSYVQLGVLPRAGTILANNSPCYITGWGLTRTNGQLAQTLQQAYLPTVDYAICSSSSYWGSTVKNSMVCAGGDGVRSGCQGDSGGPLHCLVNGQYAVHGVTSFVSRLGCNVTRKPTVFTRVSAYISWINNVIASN", "assay": "Elastase inhibition assay (release of p-nitroaniline from N-Succinyl-Ala-Ala-Ala-p-nitroanilide)", "type": "biochemical", "conditions": "for inhibition at 5 µg/mL: 5 μg/mL; for inhibition at 10 µg/mL: 10 μg/mL; for inhibition at 25 µg/mL: 25 μg/mL; for inhibition at 50 µg/mL: 50 μg/mL; for IC50: read-out: IC50 (μg/mL) (95% Confidence Interval) (converted)"}, "[2]": {"conditions": "Compound MA-NR-01 run, read-out: % Inhibition (Mean ± SEM)"}, "[3]": {"conditions": "MA ethanolic extract run, read-out: % Inhibition (Mean ± SEM)"}}, "note": "Where two headings read alike, the source gives them in different places."}
{"compound": "CCCCCCCCCCCCOS(=O)(=O)[O-].[Na+]", "note": "[Positive Control Right, sodium lauryl sulphate]", "values": [{"measurement": "Number of subjects with reactions after 48 hours", "setting": "human skin; 20 volunteers, 48 hours", "value": 12}, {"measurement": "Irritancy", "setting": "human skin; patch test on human subjects", "value": "Irritant"}, {"measurement": "Average value", "setting": "human skin; patch test, 20 volunteers, results after 96 hours", "value": 0.54}, {"measurement": "Average score", "setting": "human skin; patch test, score scale 0-4, results after 96 hours", "value": 1.03}, {"measurement": "Irritancy potential % (TP-NC)/(PC-NC)", "setting": "human skin; relative to positive control sodium lauryl sulphate and negative control water", "value": 100, "unit": "%"}]}
{"compound": "C[C@H]1[C@H](C)CC[C@]2(C(=O)O)CC[C@]3(C)C(=CC[C@@H]4[C@@]5(C)CC[C@H](O)C(C)(C)[C@@H]5CC[C@]43C)[C@H]12", "note": "[Ursolic Acid, ursolic acid]", "values": [{"measurement": "inhibition at 2.5 µg/mL", "setting": "[1]; 2.5 μg/mL, Compound MA-NR-01 run, read-out: % Inhibition (Mean ± SEM)", "value": "10.6 ± 0.32", "unit": "%"}, {"measurement": "inhibition at 5 µg/mL", "setting": "[1]; [2]", "value": "21.1 ± 0.53", "unit": "%"}, {"measurement": "inhibition at 5 µg/mL", "setting": "[1]; [3]", "value": "13.2 ± 2.25", "unit": "%"}, {"measurement": "inhibition at 10 µg/mL", "setting": "[1]; [2]", "value": "40.1 ± 1.22", "unit": "%"}, {"measurement": "inhibition at 10 µg/mL", "setting": "[1]; [3]", "value": "24.1 ± 4.5", "unit": "%"}, {"measurement": "inhibition at 25 µg/mL", "setting": "[1]; [2]", "value": "58.85 ± 0.17", "unit": "%"}, {"measurement": "inhibition at 25 µg/mL", "setting": "[1]; [3]", "value": "41.4 ± 0.92", "unit": "%"}, {"measurement": "inhibition at 50 µg/mL", "setting": "[1]; [2]", "value": "62.1 ± 1.18", "unit": "%"}, {"measurement": "inhibition at 50 µg/mL", "setting": "[1]; [3]", "value": "53.2 ± 0.56", "unit": "%"}, {"measurement": "IC50", "setting": "[1]; run of Compound MA-NR-01 (right half of Table 1)", "value": 45.5, "unit": "µM"}, {"measurement": "IC50", "setting": "[1]; run of MA ethanolic extract (left half of Table 1)", "value": 88.9, "unit": "µM"}]}
{"compound": "Myrsinoside B [MA-NR-01]", "values": [{"measurement": "% Inhibition (Mean ± SEM)", "setting": "[1]; 7.8125 μg/mL, Compound MA-NR-01 run", "value": "11.79 ± 4.35", "unit": "%"}, {"measurement": "% Inhibition (Mean ± SEM)", "setting": "[1]; 15.625 μg/mL, Compound MA-NR-01 run", "value": "4.79 ± 1.66", "unit": "%"}, {"measurement": "% Inhibition (Mean ± SEM)", "setting": "[1]; 31.25 μg/mL, Compound MA-NR-01 run", "value": "6.76 ± 4.57", "unit": "%"}, {"measurement": "% Inhibition (Mean ± SEM)", "setting": "[1]; 62.5 μg/mL, Compound MA-NR-01 run", "value": "5.73 ± 1.04", "unit": "%"}, {"measurement": "% Inhibition (Mean ± SEM)", "setting": "[1]; 125 μg/mL, Compound MA-NR-01 run", "value": "13.00±1.04", "unit": "%"}, {"measurement": "% Inhibition (Mean ± SEM)", "setting": "[1]; 250 μg/mL, Compound MA-NR-01 run", "value": "25.75 ± 1.46", "unit": "%"}, {"measurement": "% Inhibition (Mean ± SEM)", "setting": "[1]; 500 μg/mL, Compound MA-NR-01 run", "value": "31.02 ± 1.22", "unit": "%"}]}
